Measured values from patent publication US9029359B2, “Heteroaryl Btk inhibitors” (Biogen Idec MA, Inc., priority 2009, dated 2015).

Molecular target: T1, BTK (Homo sapiens, UniProt Q06187)
T1 construct: purchased Upstate 14-552
Assay: In vitro BTK kinase assay: BTK-POLYGAT-LS ASSAY
Format: biochemical
Settings: ATP 10 uM
Summary of the method: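 BTK phosphorylation of polyGAT (100 nM final) with ATP at 10 μM final, 10 mM Tris-HCl pH 7.5 kinase buffer, quenched by EDTA after 30 min. Potency given as IC50.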

T1 sequence (Q06187 whole entry): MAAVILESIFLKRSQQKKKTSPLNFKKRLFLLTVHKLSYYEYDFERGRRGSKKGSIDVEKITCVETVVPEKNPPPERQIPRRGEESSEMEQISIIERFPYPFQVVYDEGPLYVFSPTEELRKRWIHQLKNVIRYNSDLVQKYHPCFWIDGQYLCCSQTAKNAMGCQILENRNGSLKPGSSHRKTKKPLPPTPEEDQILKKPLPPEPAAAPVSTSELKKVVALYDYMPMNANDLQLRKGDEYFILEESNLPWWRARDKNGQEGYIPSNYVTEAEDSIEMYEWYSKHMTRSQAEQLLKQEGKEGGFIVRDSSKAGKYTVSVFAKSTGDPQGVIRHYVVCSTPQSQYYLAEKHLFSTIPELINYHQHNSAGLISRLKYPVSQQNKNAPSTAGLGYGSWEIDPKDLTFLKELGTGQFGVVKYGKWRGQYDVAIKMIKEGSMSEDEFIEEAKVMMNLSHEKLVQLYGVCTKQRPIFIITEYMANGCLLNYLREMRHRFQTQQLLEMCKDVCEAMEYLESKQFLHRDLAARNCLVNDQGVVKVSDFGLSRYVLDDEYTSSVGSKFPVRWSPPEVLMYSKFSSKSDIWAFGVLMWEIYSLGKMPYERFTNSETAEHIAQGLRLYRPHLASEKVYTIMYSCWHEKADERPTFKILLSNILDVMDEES

| IC50 | SMILES |
| --- | --- |
| < 100 nM | CC[C@@H](C)[C@@H](Nc1cc(F)cc(Cl)c1)C(=O)N[C@@H]1CCCN(c2ncnc3[nH]ncc23)C1 [Example 180] |
| < 100 nM | C[C@H](O)[C@@H](Nc1cc(Cl)cc(Cl)c1)C(=O)N[C@@H]1CCCN(c2ncnc3[nH]ccc23)C1 [Example 181] |
| < 100 nM | O=C(CNc1ccccc1S(=O)(=O)N1CCCCC1)N[C@@H]1CCCN(c2ncnc3[nH]ccc23)C1 [Example 182] |
| < 100 nM | O=C(CNc1ccccc1S(=O)(=O)N1CCCCC1)N[C@@H]1CCCN(c2ncnc3[nH]ncc23)C1 [Example 183] |
| < 100 nM | O=C(NC1CCCCN(c2ncnc3[nH]ncc23)C1)[C@H](Nc1cc(F)cc(Cl)c1)C1CC1 (stereo partly drawn) [Example 184] |
| < 100 nM | C[C@@H](Nc1cc(F)cc(Cl)c1)C(=O)N[C@@H]1CCCN(c2ncnc3[nH]ncc23)C1 [Example 185] |
| < 100 nM | CC(C)CN(CC(C)C)S(=O)(=O)c1ccccc1NCC(=O)N[C@@H]1CCCN(c2ncnc3[nH]ncc23)C1 [Example 186] |
| < 100 nM | O=C(CNc1ccccc1S(=O)(=O)c1cccc(C(F)(F)F)c1)N[C@@H]1CCCN(c2ncnc3[nH]ncc23)C1 [Example 187] |
| < 100 nM | CC(C)CCSc1ccccc1NCC(=O)N[C@@H]1CCCN(c2ncnc3[nH]ccc23)C1 [Example 188] |
| < 100 nM | CC1CCCN1S(=O)(=O)c1ccccc1NCC(=O)N[C@@H]1CCCN(c2ncnc3[nH]ncc23)C1 (stereo partly drawn) [Example 189] |
| < 100 nM | CC[C@H](C)[C@@H](Nc1cc(F)cc(Cl)c1)C(=O)N[C@@H]1CCCN(c2ncnc3[nH]ncc23)C1 [Example 192] |
| < 100 nM | CCCC[C@@H](Nc1cc(F)cc(Cl)c1)C(=O)N[C@@H]1CCCN(c2ncnc3[nH]ncc23)C1 [Example 193] |
| < 100 nM | O=C(CNc1ccccc1Sc1ccccc1)N[C@@H]1CCCN(c2ncnc3[nH]ccc23)C1 [Example 194] |
| < 100 nM | CCN(CC)S(=O)(=O)c1ccccc1NCC(=O)N[C@@H]1CCCN(c2ncnc3[nH]ncc23)C1 [Example 195] |
| < 100 nM | CCN(C(C)C)S(=O)(=O)c1ccccc1NCC(=O)N[C@@H]1CCCN(c2ncnc3[nH]ncc23)C1 [Example 196] |
| < 100 nM | CCC[C@@H](Nc1cc(F)cc(Cl)c1)C(=O)N[C@@H]1CCCN(c2ncnc3[nH]ccc23)C1 [Example 197] |
| < 100 nM | CC1(C)CCCN(S(=O)(=O)c2ccccc2NCC(=O)N[C@@H]2CCCN(c3ncnc4[nH]ncc34)C2)C1 [Example 198] |
| < 100 nM | CCCCOc1ccccc1NCC(=O)N[C@@H]1CCCN(c2ncnc3[nH]ccc23)C1 [Example 199] |
| < 100 nM | CC(C)(C)[C@@H](Nc1cc(F)cc(Cl)c1)C(=O)N[C@@H]1CCCN(c2ncnc3[nH]ncc23)C1 [Example 200] |
| < 100 nM | CC(C)(C)[C@@H](Nc1cc(Cl)cc(Cl)c1)C(=O)N[C@@H]1CCCN(c2ncnc3[nH]ccc23)C1 [Example 202] |
| < 100 nM | O=C(CNc1ccccc1S(=O)(=O)N1CCCC1)N[C@@H]1CCCN(c2ncnc3[nH]ccc23)C1 [Example 203] |
| < 100 nM | O=C(CNc1ccccc1Oc1ccccc1)N[C@@H]1CCCN(c2ncnc3[nH]ncc23)C1 [Example 204] |
| < 100 nM | O=C(CNc1ccccc1S(=O)(=O)N1CCCC1)N[C@@H]1CCCN(c2ncnc3[nH]ncc23)C1 [Example 205] |
| < 100 nM | C[C@H](O)[C@@H](Nc1cc(F)cc(Cl)c1)C(=O)N[C@@H]1CCCN(c2ncnc3[nH]ccc23)C1 [Example 206] |

| IC50 | SMILES |
| --- | --- |
| < 100 nM | CCN(C)S(=O)(=O)c1ccccc1NCC(=O)N[C@@H]1CCCN(c2ncnc3[nH]ccc23)C1 [Example 207] |
| < 100 nM | CCN(CC)S(=O)(=O)c1ccccc1NCC(=O)N[C@@H]1CCCN(c2ncnc3[nH]ccc23)C1 [Example 208] |
| < 100 nM | CC(C)[C@@H](Nc1cc(F)cc(Cl)c1)C(=O)N[C@@H]1CCCN(c2ncnc3[nH]ccc23)C1 [Example 209] |
| < 100 nM | CC(C)c1ccccc1NCC(=O)N[C@@H]1CCCN(c2ncnc3[nH]ccc23)C1 [Example 210] |
| < 100 nM | CN(C1CCCC1)S(=O)(=O)c1ccccc1NCC(=O)N[C@@H]1CCCN(c2ncnc3[nH]ncc23)C1 [Example 211] |
| < 100 nM | CC1CCN(S(=O)(=O)c2ccccc2NCC(=O)N[C@@H]2CCCN(c3ncnc4[nH]ncc34)C2)CC1 [Example 212] |
| < 100 nM | CCN(C)S(=O)(=O)c1ccccc1NCC(=O)N[C@@H]1CCCN(c2ncnc3[nH]ncc23)C1 [Example 213] |
| < 100 nM | CC1CCCCN1S(=O)(=O)c1ccccc1NCC(=O)N[C@@H]1CCCN(c2ncnc3[nH]ncc23)C1 (stereo partly drawn) [Example 214] |
| < 100 nM | CCC[C@@H](Nc1cccc(Cl)c1)C(=O)N[C@@H]1CCCN(c2ncnc3[nH]ccc23)C1 [Example 215] |
| < 100 nM | O=C(CNc1ccccc1S(=O)(=O)N1CCC(C(F)(F)F)CC1)N[C@@H]1CCCN(c2ncnc3[nH]ccc23)C1 [Example 217] |
| < 100 nM | CC(C)c1ccccc1NCC(=O)N[C@@H]1CCCN(c2ncnc3[nH]ncc23)C1 [Example 219] |
| < 100 nM | CC1CCC(C)N1S(=O)(=O)c1ccccc1NCC(=O)N[C@@H]1CCCN(c2ncnc3[nH]ncc23)C1 (stereo partly drawn) [Example 220] |
| < 100 nM | O=C(CNc1ccccc1OCCc1ccccc1)N[C@@H]1CCCN(c2ncnc3[nH]ccc23)C1 [Example 221] |
| < 100 nM | O=C(CNc1ccccc1OC1CCCC1)N[C@@H]1CCCN(c2ncnc3[nH]ccc23)C1 [Example 222] |
| 100 to 999 nM | CN(C(=O)CNc1ccccc1)C1CCCN(c2ncnc3[nH]ccc23)C1 (stereo not drawn) [Example 223] |
| < 100 nM | CC1CC(C)CN(S(=O)(=O)c2ccccc2NCC(=O)N[C@@H]2CCCN(c3ncnc4[nH]ncc34)C2)C1 (stereo partly drawn) [Example 224] |
| < 100 nM | CC[C@@H](Nc1cc(F)cc(Cl)c1)C(=O)N[C@@H]1CCCN(c2ncnc3[nH]ccc23)C1 [Example 225] |
| < 100 nM | C[C@@H](O)[C@@H](Nc1cc(F)cc(Cl)c1)C(=O)N[C@H]1CN(c2ncnc3[nH]ncc23)CC[C@@H]1C [Example 226] |
| < 100 nM | O=C(CNc1ccccc1S(=O)(=O)N1CC2CCCC2C1)N[C@@H]1CCCN(c2ncnc3[nH]ncc23)C1 (stereo partly drawn) [Example 227] |
| < 100 nM | O=C(CNc1ccccc1S(=O)(=O)N1CCC(C(F)(F)F)CC1)N[C@@H]1CCCN(c2ncnc3[nH]ncc23)C1 [Example 228] |
| < 100 nM | CC1CCCC(C)N1S(=O)(=O)c1ccccc1NCC(=O)N[C@@H]1CCCN(c2ncnc3[nH]ncc23)C1 (stereo partly drawn) [Example 229] |
| 100 to 999 nM | O=C(N[C@@H](C(=O)N[C@@H]1CCCN(c2ncnc3[nH]ccc23)C1)C1CC1)c1ccccc1O [Example 230] |
| < 100 nM | O=C(N[C@@H]1CCCN(c2ncnc3[nH]ncc23)C1)[C@H](Nc1cccc(Cl)c1)C1CC1 [Example 231] |
| < 100 nM | C[C@@H](Nc1cc(F)cc(Cl)c1)C(=O)N[C@@H]1CCCN(c2ncnc3[nH]ccc23)C1 [Example 232] |

| IC50 | SMILES |
| --- | --- |
| < 100 nM | C[C@H](O)[C@@H](Nc1cccc(Cl)c1)C(=O)N[C@@H]1CCCN(c2ncnc3[nH]ccc23)C1 [Example 233] |
| 100 to 999 nM | CC(C)c1ccccc1N[C@@H](C(=O)N[C@@H]1CCCN(c2ncnc3[nH]ncc23)C1)C1CC1 [Example 234] |
| < 100 nM | O=C(CNc1ccccc1S(=O)(=O)c1ccc(C(F)(F)F)cc1)N[C@@H]1CCCN(c2ncnc3[nH]ncc23)C1 [Example 235] |
| < 100 nM | O=C(CNc1ccccc1Cl)N[C@@H]1CCCN(c2ncnc3[nH]ccc23)C1 [Example 236] |
| 100 to 999 nM | Cc1cccc(NCC(=O)N[C@@H]2CCCN(c3ncnc4[nH]ccc34)C2)c1 [Example 237] |
| < 100 nM | C[C@@H](Nc1cccc(Cl)c1)C(=O)N[C@@H]1CCCN(c2ncnc3[nH]ccc23)C1 [Example 238] |
| 100 to 999 nM | CC(C)c1ccccc1N[C@@H](C(=O)N[C@@H]1CCCN(c2ncnc3[nH]ccc23)C1)[C@H](C)O [Example 239] |
| < 100 nM | CN(C1CCCCC1)S(=O)(=O)c1ccccc1NCC(=O)N[C@@H]1CCCN(c2ncnc3[nH]ncc23)C1 [Example 240] |
| < 100 nM | O=C(CNc1ccccc1Oc1ccccc1)N[C@@H]1CCCN(c2ncnc3[nH]ccc23)C1 [Example 241] |
| < 100 nM | O=C(CNc1ccccc1S(=O)(=O)N1CCOCC1)N[C@@H]1CCCN(c2ncnc3[nH]ncc23)C1 [Example 242] |
| < 100 nM | O=C(CNc1ccccc1S(=O)(=O)N1CCOCC1)N[C@@H]1CCCN(c2ncnc3[nH]ccc23)C1 [Example 243] |
| < 100 nM | O=C(CNc1ccccc1OC1CCCC1)N[C@@H]1CCCN(c2ncnc3[nH]ncc23)C1 [Example 245] |
| 100 to 999 nM | CN(C)S(=O)(=O)c1ccc(F)cc1NCC(=O)N[C@@H]1CCCN(c2ncnc3[nH]ccc23)C1 [Example 246] |
| < 100 nM | O=C(CNc1cccc(Cl)c1)N[C@@H]1CCCN(c2ncnc3[nH]ncc23)C1 [Example 247] |
| 100 to 999 nM | CC(C)Oc1ccccc1NCC(=O)N[C@@H]1CCCN(c2ncnc3[nH]ccc23)C1 [Example 248] |
| 100 to 999 nM | CC[C@@H](Nc1ccccc1C(C)C)C(=O)N[C@@H]1CCCN(c2ncnc3[nH]ccc23)C1 [Example 249] |
| < 100 nM | CC1(C)CCN(S(=O)(=O)c2ccccc2NCC(=O)N[C@@H]2CCCN(c3ncnc4[nH]ccc34)C2)CC1 [Example 250] |
| < 100 nM | O=C(CNc1ccccc1OC1CCCCCC1)N[C@@H]1CCCN(c2ncnc3[nH]ccc23)C1 [Example 251] |
| 100 to 999 nM | O=C(CNc1ccccc1C(=O)N1CCCCC1)N[C@@H]1CCCN(c2ncnc3[nH]ccc23)C1 [Example 253] |
| < 100 nM | O=C(CNc1cccc2c1CCCC2)N[C@@H]1CCCN(c2ncnc3[nH]ccc23)C1 [Example 254] |
| < 100 nM | CC(C)(C)[C@@H](Nc1cccc(Cl)c1)C(=O)N[C@@H]1CCCN(c2ncnc3[nH]ccc23)C1 [Example 255] |
| < 100 nM | CC(C)(C)C1CCN(S(=O)(=O)c2ccccc2NCC(=O)N[C@@H]2CCCN(c3ncnc4[nH]ncc34)C2)CC1 [Example 256] |
| 100 to 999 nM | CCC[C@@H](Nc1ccccc1)C(=O)N[C@@H]1CCCN(c2ncnc3[nH]ccc23)C1 [Example 257] |
| 100 to 999 nM | Cc1ccc(NCC(=O)N[C@@H]2CCCN(c3ncnc4[nH]ccc34)C2)cc1C [Example 258] |
